# Test results: patent publication US12522595B2, “Bicyclic ether O-glycoprotein-2-acetamido-2-deoxy-3-D-glucopyranosidase inhibitors” (BIOGEN MA INC., priority 2019, dated 2026)
# Biological target: T1, Recombinant full length human OGA enzyme (Homo sapiens, UniProt O60502)
# T1 construct: Recombinant full length human OGA enzyme was purchased from Origene; purchased Origene
# T1 sequence (O60502 1-916): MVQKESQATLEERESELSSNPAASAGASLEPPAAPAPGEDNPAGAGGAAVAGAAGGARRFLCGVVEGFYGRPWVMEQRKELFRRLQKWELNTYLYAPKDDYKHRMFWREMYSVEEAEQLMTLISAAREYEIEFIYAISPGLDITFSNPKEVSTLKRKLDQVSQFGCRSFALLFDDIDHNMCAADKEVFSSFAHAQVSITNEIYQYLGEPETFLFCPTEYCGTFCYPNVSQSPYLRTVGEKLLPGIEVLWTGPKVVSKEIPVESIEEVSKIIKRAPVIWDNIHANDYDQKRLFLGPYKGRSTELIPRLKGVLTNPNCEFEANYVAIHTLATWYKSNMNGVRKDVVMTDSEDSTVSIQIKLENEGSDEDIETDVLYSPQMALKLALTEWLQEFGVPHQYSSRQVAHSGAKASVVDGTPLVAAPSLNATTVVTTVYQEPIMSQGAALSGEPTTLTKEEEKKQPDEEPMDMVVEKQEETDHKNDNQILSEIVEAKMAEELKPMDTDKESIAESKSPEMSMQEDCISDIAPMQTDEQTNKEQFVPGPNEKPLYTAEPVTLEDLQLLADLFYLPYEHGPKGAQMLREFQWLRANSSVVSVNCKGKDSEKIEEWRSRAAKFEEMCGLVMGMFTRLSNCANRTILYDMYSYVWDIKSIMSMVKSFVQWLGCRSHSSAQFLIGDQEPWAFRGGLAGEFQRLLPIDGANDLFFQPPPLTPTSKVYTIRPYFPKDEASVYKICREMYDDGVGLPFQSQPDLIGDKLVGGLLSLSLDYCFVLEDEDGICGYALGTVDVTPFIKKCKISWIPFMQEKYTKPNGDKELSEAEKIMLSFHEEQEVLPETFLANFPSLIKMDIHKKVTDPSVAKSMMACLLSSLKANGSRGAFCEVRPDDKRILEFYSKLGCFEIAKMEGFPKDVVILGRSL
# Experiment: OGA enzyme inhibition biochemical assay
# Conditions: 1 nM OGA, 100 μM 4-MUGlcNAc (Km), pH 6.4, 90 minutes at room temperature, 10-point dose-response from 20 μM
# Outline: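 1 nM OGA with 100 μM 4-MUGlcNAc (Km) in McIlvaine buffer pH 6.4, 0.01% BSA, 90 min at room temperature; quenched with 3M glycine pH 10, fluorescence Ex 355/Em 460 nm. 10-point, 4-fold dilutions from 20 μM; 4-parameter variable-slope fit.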
row,IC50 [nM],Compound
1,< 1,"CC(=O)Nc1nc(F)c(CN2C[C@H](Oc3ccc4cnccc4n3)C[C@@H]2C)s1 [Example 120, N-(5-(((2S,4R)-4-((1,6-naphthyridin-2-yl)oxy)-2-methylpyrrolidin-1-yl)methyl)-4-fluorothiazol-2-yl)acetamide]"
2,< 1,"CC(=O)Nc1ncc(CN2C[C@H](Oc3ncc4c(C)csc4n3)C[C@@H]2C)s1 [Example 3, N-(5-(((2S,4R)-2-methyl-4-((5-methylthieno[2,3-d]pyrimidin-2-yl)oxy)pyrrolidin-1-yl)methyl)thiazol-2-yl)acetamide]"
3,< 1,"CC(=O)Nc1nc(F)c(CN2C[C@H](Oc3cccn4ccnc34)C[C@@H]2C)s1 [Example 157, N-(4-fluoro-5-(((2S,4R)-4-(imidazo[1,2-a]pyridin-8-yloxy)-2-methylpyrrolidin-1-yl)methyl)thiazol-2-yl)acetamide]"
4,< 1,"CC(=O)Nc1nc(F)c(CN2C[C@H](Oc3nccn4cc(C)nc34)C[C@@H]2C)s1 [Example 103, N-(4-fluoro-5-(((2S,4R)-2-methyl-4-((2-methylimidazo[1,2-a]pyrazin-8-yl)oxy)pyrrolidin-1-yl)methyl)thiazol-2-yl)acetamide]"
5,< 1,"COc1cccn2nc(O[C@@H]3C[C@H](C)N(Cc4sc(NC(C)=O)nc4F)C3)nc12 [Example 148, N-(4-fluoro-5-(((2S,4R)-4-((8-methoxy-[1,2,4]triazolo[1,5-a]pyridin-2-yl)oxy)-2-methylpyrrolidin-1-yl)methyl)thiazol-2-yl)acetamide]"
6,< 1,"CC(=O)Nc1ncc(CN2C[C@H](Oc3ncnc4ccoc34)C[C@@H]2C)s1 [Example 71, N-(5-(((2S,4R)-4-(furo[3,2-d]pyrimidin-4-yloxy)-2-methylpyrrolidin-1-yl)methyl)thiazol-2-yl)acetamide]"
7,< 1,"CC(=O)Nc1nc(F)c(CN2C[C@H](Oc3cc4cn(C)nc4cn3)C[C@@H]2C)s1 [Example 89, N-(4-fluoro-5-(((2S,4R)-2-methyl-4-((2-methyl-2H-pyrazolo[3,4-c]pyridin-5-yl)oxy)pyrrolidin-1-yl)methyl)thiazol-2-yl)acetamide]"
8,< 1,"CC(=O)Nc1ncc(CN2C[C@H](Oc3ccc4cc(C(N)=O)ccc4n3)C[C@@H]2C)s1 [Example 2, 2-(((3R,5S)-1-((2-acetamidothiazol-5-yl)methyl)-5-methylpyrrolidin-3-yl)oxy)quinoline-6-carboxamide]"
9,< 1,"CC(=O)Nc1nc(F)c(CN2C[C@H](Oc3ccnc4cn(C)nc34)C[C@@H]2C)s1 [Example 134, N-(4-fluoro-5-(((2S,4R)-2-methyl-4-((2-methyl-2H-pyrazolo[4,3-b]pyridin-7-yl)oxy)pyrrolidin-1-yl)methyl)thiazol-2-yl)acetamide]"
10,< 1,"CC(=O)Nc1ncc(CN2C[C@H](Oc3ccc4sccc4n3)C[C@@H]2C)s1 [Example 4, N-(5-(((2S,4R)-2-methyl-4-(thieno[3,2-b]pyridin-5-yloxy)pyrrolidin-1-yl)methyl)thiazol-2-yl)acetamide]"
11,< 1,"CC(=O)Nc1nc(F)c(CN2C[C@H](Oc3nccc4nccn34)C[C@@H]2C)s1 [Example 98, N-(4-fluoro-5-(((2S,4R)-4-(imidazo[1,2-c]pyrimidin-5-yloxy)-2-methylpyrrolidin-1-yl)methyl)thiazol-2-yl)acetamide]"
12,< 1,"CC(=O)Nc1nc(F)c(CN2C[C@H](Oc3ccc4c(nnn4C)n3)C[C@@H]2C)s1 [Example 152, N-(4-fluoro-5-(((2S,4R)-2-methyl-4-((1-methyl-1H-[1,2,3]triazolo[4,5-b]pyridin-5-yl)oxy)pyrrolidin-1-yl)methyl)thiazol-2-yl)acetamide]"
13,< 1,"CC(=O)Nc1nc(F)c(CN2C[C@H](Oc3ccnc4nn(C)cc34)C[C@@H]2C)s1 [Example 140, N-(4-fluoro-5-(((2S,4R)-2-methyl-4-((2-methyl-2H-pyrazolo[3,4-b]pyridin-4-yl)oxy)pyrrolidin-1-yl)methyl)thiazol-2-yl)acetamide]"
14,5.3,"CC(=O)Nc1ncc(CN2C[C@H](Oc3nccn4ccnc34)C[C@@H]2C)s1 [Example 95, N-(5-(((2S,4R)-4-(imidazo[1,2-a]pyrazin-8-yloxy)-2-methylpyrrolidin-1-yl)methyl)thiazol-2-yl)acetamide]"
15,1.3,"CC(=O)Nc1ncc(CN2C[C@H](Oc3ccnc4ccccc34)C[C@@H]2C)s1 [Example 19, N-(5-(((2S,4R)-2-methyl-4-(quinolin-4-yloxy)pyrrolidin-1-yl)methyl)thiazol-2-yl)acetamide]"
16,< 1,"COc1cc2c(O[C@@H]3C[C@H](C)N(Cc4sc(NC(C)=O)nc4F)C3)ccnc2cc1F [Example 128, N-(4-fluoro-5-(((2S,4R)-4-((7-fluoro-6-methoxyquinolin-4-yl)oxy)-2-methylpyrrolidin-1-yl)methyl)thiazol-2-yl)acetamide]"
17,< 1,"CC(=O)Nc1nc(F)c(CN2C[C@H](Oc3cnc4c(ccn4C)n3)C[C@@H]2C)s1 [Example 109, N-(4-fluoro-5-(((2S,4R)-2-methyl-4-((5-methyl-5H-pyrrolo[2,3-b]pyrazin-2-yl)oxy)pyrrolidin-1-yl)methyl)thiazol-2-yl)acetamide]"
18,4.3,"CC(=O)Nc1nc(F)c(CN2C[C@H](Oc3nccc4cn(C)nc34)C[C@@H]2C)s1 [Example 137, N-(4-fluoro-5-(((2S,4R)-2-methyl-4-((2-methyl-2H-pyrazolo[3,4-c]pyridin-7-yl)oxy)pyrrolidin-1-yl)methyl)thiazol-2-yl)acetamide]"
19,< 1,"CC(=O)Nc1ncc(CN2C[C@H](Oc3nccc4oc(C)cc34)C[C@@H]2C)s1 [Example 16, N-(5-(((2S,4R)-2-methyl-4-((2-methylfuro[3,2-c]pyridin-4-yl)oxy)pyrrolidin-1-yl)methyl)thiazol-2-yl)acetamide]"
20,< 1,"CC(=O)Nc1ncc(CN2C[C@H](Oc3ncnc4cc(OC(F)F)ccc34)C[C@@H]2C)s1 [Example 14, N-(5-(((2S,4R)-4-((7-(difluoromethoxy)quinazolin-4-yl)oxy)-2-methylpyrrolidin-1-yl)methyl)thiazol-2-yl)acetamide]"
21,< 1,"CC(=O)Nc1nc(F)c(CN2C[C@H](Oc3ncnc4c(F)cccc34)C[C@@H]2C)s1 [Example 122, N-(4-fluoro-5-(((2S,4R)-4-((8-fluoroquinazolin-4-yl)oxy)-2-methylpyrrolidin-1-yl)methyl)thiazol-2-yl)acetamide]"
